# From PubChem BioAssay AID2060329 (Molecular Pharmacology Branch, DTP, NCI, 2025)
# Several values for one entry are separate records, joined by “and”; a condition that tells them apart may be missing. Equal values may be shown once.
# Test system: MCF7 multi-cell spheroids with HUVEC/MSC, viability
# Experiment: Anticancer human tumor MCF7 cell line growth inhibition [IpAb];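 note: spheroids exposed to agents for seven days before readout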
# Conditions: for viability, T/C: stronger effect = lower value
# Source text: Combinatorial screen of targeted agents with ipatasertib and abemaciclib in multi-cell type tumor spheroids
# A high-throughput screen of multi-cell type tumor spheroids was designed to identify active combinations of targeted small molecules and ipatasertib or abemaciclib. Complex spheroids include a stromal component modeled by human endothelial cells (HUVEC) and fibroblasts modeled by human mesenchymal stem cells (MSCs). The concentration ranges selected for each drug and investigational agent were based upon clinically achievable concentrations if the clinical Cmax of the agent was known.
# Compounds. The drugs and investigational agents: ipatasertib (NSC767898), abemaciclib(NSC768073), selumetinib (NSC741078), trametinib (758246), adavosertib (NSC754352), everolimus (NSC733504), sapanisertib (NSC764658), vemurafenib (NSC761431), venetoclax (NSC766270), copanlisib (NSC809693), apelisib (NSC765974), palbociblib (NSC758247), vemurafenib (NSC761431), dabrafenib (NSC764134), ravoxertinib (NSC781343), BMS-387032 (NSC767048), sotorasib (NSC818433), talazoparib (NSC767125) and afursertib (NSC778305), were obtained from the National Cancer Institute (NCI) Developmental Therapeutics Program Chemical Repository. The FDA-approved anticancer drug set is available from the NCI Developmental Therapeutics Program. […] The stock solutions were prepared in dimethyl sulfoxide (DMSO, Sigma-Aldrich, St. Louis, MO, cat. D2650) at 800-fold the tested concentration and stored at -70 degrees C prior to their use. All drugs and investigational agents were tested over a range starting from a high concentration at or near the clinical Cmax and decreasing in half-log increments. If the clinical Cmax for an agent had not been determined, the highest concentration tested was 10 microM.
# NCI60 Cell Culture. NCI60 cell lines were obtained from the NCI Developmental Therapeutics Program Tumor Repository. For each lot of cells, the Repository performed Applied Biosystems AmpFLSTR Identifiler testing with PCR amplification to confirm consistency with the published Identifier STR profile for each cell line. Cells were kept in continuous culture for no more than 20 passages. The optimal seeding densities for each of the cell lines at each time point assessed were determined prior to performing the concentration response studies. Briefly, the NCI60 human tumor lines were grown as monolayers in RPMI 1640 medium supplemented with 10% FBS and 2 mmol/L L-glutamine.
# An additional 9 lines were from the NCI60 cell line panel including MDA-MB-231 breast carcinoma, MDA-MB-468 breast carcinoma, MCF7 breast carcinoma, Hs578T breast carcinoma, MALME-3M melanoma, SK-MEL-2 melanoma, SK-OV-3 ovarian carcinoma, DU-145 prostate carcinoma, PC-3 prostate carcinoma, all cell lines along with major genetic alterations are listed on Table 2. Pooled donor human umbilical vein endothelial cells (HUVEC, Lonza, cat. CC-2519) and human mesenchymal stem cells (hMSC, Lonza, cat. PT-2501) were purchased from Lonza (Walkersville, MD).
# PDMR cell lines were grown in complete medium (DC medium): Dulbecco's modified Eagle's medium (DMEM)/F12 supplemented with 5% fetal bovine serum (FBS), 2 mM L-glutamine, 100 U/mL penicillin and 100 µg/ml streptomycin, 0.4 µg/ml hydrocortisone, 10 ng/ml epidermal growth factor (EGF) recombinant human protein, 24 µg/mL adenine, and 0.1 mg/mL primocin. During culture from frozen stock vials, PDMR cells were cultured in the same medium containing 10 µM Y-27632 (see Table 3). The PDCs were cultured in complete DMEM/F12 media without 10 microM Y-27632 dihydrochloride for at least two passages prior to the screen. The pooled donor HUVEC and hMSC were cultured in endothelial cell growth medium 2 (PromoCell, Heidelberg, Germany, cat. C-22011) and mesenchymal stem cell growth medium 2 (PromoCell, cat. C-28009), respectively. For all experiments, HUVEC and hMSC were used at passages </=5.
# […]
# [1] = curve of first compound, second compound 0.01 µM
# [2] = curve of first compound, second compound 0.0316 µM
# [3] = curve of first compound, second compound 0.1 µM
# [4] = curve of first compound, second compound 0.316 µM
# [5] = curve of first compound, second compound 1 µM
# [6] = second compound 0.1 µM, first compound 0.0316 µM
# [7] = second compound 0.1 µM, first compound 0.1 µM
# [8] = second compound 0.1 µM, first compound 0.316 µM
# [9] = second compound 0.1 µM, first compound 1 µM
# [10] = second compound 0.1 µM, first compound 3.16 µM
# [11] = second compound 0.1 µM, first compound 10 µM
# [12] = second compound 0.316 µM, first compound 0.0316 µM
# [13] = second compound 0.316 µM, first compound 0.1 µM
# [14] = second compound 0.316 µM, first compound 0.316 µM
# [15] = second compound 0.316 µM, first compound 1 µM
# [16] = second compound 0.316 µM, first compound 3.16 µM
# [17] = second compound 0.316 µM, first compound 10 µM
# [18] = second compound 1 µM, first compound 0.0316 µM
# [19] = second compound 1 µM, first compound 0.1 µM
# [20] = second compound 1 µM, first compound 0.316 µM
# [21] = second compound 1 µM, first compound 1 µM
# [22] = second compound 1 µM, first compound 3.16 µM
# [23] = second compound 1 µM, first compound 10 µM
structure (smiles),measurement,setting,value
Cn1nccc1Nc1nccc(-c2ccn(C(CO)c3ccc(Cl)c(F)c3)c(=O)c2)n1 (configuration not stated) + CCN1CCN(Cc2ccc(Nc3ncc(F)c(-c4cc(F)c5nc(C)n(C(C)C)c5c4)n3)nc2)CC1,IC50,[1],> 10 µM
same,IC50,[2],> 10 µM
same,IC50,[3],> 10 µM
same,IC50,[4],> 10 µM
same,IC50,[5],> 10 µM
same,"viability, T/C","second compound 0.01 µM, first compound 0.0316 µM",107%
same,"viability, T/C","second compound 0.01 µM, first compound 0.1 µM",113%
same,"viability, T/C","second compound 0.01 µM, first compound 0.316 µM",115%
same,"viability, T/C","second compound 0.01 µM, first compound 1 µM",126%
same,"viability, T/C","second compound 0.01 µM, first compound 3.16 µM",143%
same,"viability, T/C","second compound 0.01 µM, first compound 10 µM",104%
same,"viability, T/C","second compound 0.0316 µM, first compound 0.0316 µM",105%
same,"viability, T/C","second compound 0.0316 µM, first compound 0.1 µM",116%
same,"viability, T/C","second compound 0.0316 µM, first compound 0.316 µM",128%
same,"viability, T/C","second compound 0.0316 µM, first compound 1 µM",136%
same,"viability, T/C","second compound 0.0316 µM, first compound 3.16 µM",138%
same,"viability, T/C","second compound 0.0316 µM, first compound 10 µM",62.1%
same,"viability, T/C",[6],116%
same,"viability, T/C",[7],129%
same,"viability, T/C",[8],139%
same,"viability, T/C",[9],136%
same,"viability, T/C",[10],139%
same,"viability, T/C",[11],74.8%
same,"viability, T/C",[12],119%
same,"viability, T/C",[13],115%
same,"viability, T/C",[14],131%
same,"viability, T/C",[15],143%
same,"viability, T/C",[16],133%
same,"viability, T/C",[17],95%
same,"viability, T/C",[18],126%
same,"viability, T/C",[19],125%
same,"viability, T/C",[20],123%
same,"viability, T/C",[21],148%
same,"viability, T/C",[22],145%
same,"viability, T/C",[23],113%
Cn1cnc2c(F)c(Nc3ccc(Br)cc3Cl)c(C(=O)NOCCO)cc21,"viability, T/C",compound 0.00949 µM,97.5% and 94.6%
same,"viability, T/C",compound 0.03 µM,102% and 98%
same,"viability, T/C",compound 0.0949 µM,105% and 97.7%
same,"viability, T/C",compound 0.3 µM,103% and 116%
same,"viability, T/C",compound 0.949 µM,107% and 102%
same,"viability, T/C",compound 3 µM,111% and 109%
same,IC50,curve of compound,> 3 µM
Cn1ncc(Cl)c1-c1cc(C(=O)NC(CN)Cc2cccc(F)c2)sc1Cl (configuration not stated) + CC(C)NCC(C(=O)N1CCN(c2ncnc3c2C(C)CC3O)CC1)c1ccc(Cl)cc1,IC50,[3],1.2 µM
same,IC50,[4],0.996 µM
same,IC50,[5],1.31 µM
same,IC50,"curve of first compound, second compound 3.16 µM",0.566 µM
same,IC50,"curve of first compound, second compound 10 µM",< 0.0316 µM
same,"viability, T/C",[6],85.2%
same,"viability, T/C",[7],79.4%
same,"viability, T/C",[8],74.2%
same,"viability, T/C",[9],59.2%
same,"viability, T/C",[10],3.8%
same,"viability, T/C",[11],0.14%
same,"viability, T/C",[12],84.1%
same,"viability, T/C",[13],73.7%
same,"viability, T/C",[14],72.5%
same,"viability, T/C",[15],51.1%
same,"viability, T/C",[16],10.7%
same,"viability, T/C",[17],0.13%
same,"viability, T/C",[18],74.7%
same,"viability, T/C",[19],70.7%
same,"viability, T/C",[20],67.5%
same,"viability, T/C",[21],63.4%
same,"viability, T/C",[22],7%
same,"viability, T/C",[23],0.12%
same,"viability, T/C","second compound 3.16 µM, first compound 0.0316 µM",59.9%
same,"viability, T/C","second compound 3.16 µM, first compound 0.1 µM",61.4%
same,"viability, T/C","second compound 3.16 µM, first compound 0.316 µM",54%
same,"viability, T/C","second compound 3.16 µM, first compound 1 µM",43.2%
same,"viability, T/C","second compound 3.16 µM, first compound 3.16 µM",6.48%
same,"viability, T/C","second compound 3.16 µM, first compound 10 µM",0.13%
same,"viability, T/C","second compound 10 µM, first compound 0.0316 µM",42.6%
same,"viability, T/C","second compound 10 µM, first compound 0.1 µM",49.1%
same,"viability, T/C","second compound 10 µM, first compound 0.316 µM",47.3%
same,"viability, T/C","second compound 10 µM, first compound 1 µM",43.3%
same,"viability, T/C","second compound 10 µM, first compound 3.16 µM",2.17%
same,"viability, T/C","second compound 10 µM, first compound 10 µM",0.59%
CC(=O)c1c(C)c2cnc(Nc3ccc(N4CCNCC4)cn3)nc2n(C2CCCC2)c1=O + CCN1CCN(Cc2ccc(Nc3ncc(F)c(-c4cc(F)c5nc(C)n(C(C)C)c5c4)n3)nc2)CC1,IC50,[1],> 0.3 µM
same,IC50,[2],> 0.3 µM
same,IC50,[3],> 0.3 µM
same,IC50,[4],> 0.3 µM
same,IC50,[5],> 0.3 µM
same,"viability, T/C","second compound 0.01 µM, first compound 0.000949 µM",93.2%
same,"viability, T/C","second compound 0.01 µM, first compound 0.003 µM",99.5%
same,"viability, T/C","second compound 0.01 µM, first compound 0.00949 µM",103%
same,"viability, T/C","second compound 0.01 µM, first compound 0.03 µM",104%
same,"viability, T/C","second compound 0.01 µM, first compound 0.0949 µM",97.4%
same,"viability, T/C","second compound 0.01 µM, first compound 0.3 µM",93.6%
same,"viability, T/C","second compound 0.0316 µM, first compound 0.000949 µM",101%
same,"viability, T/C","second compound 0.0316 µM, first compound 0.003 µM",95.4%
same,"viability, T/C","second compound 0.0316 µM, first compound 0.00949 µM",90.6%
same,"viability, T/C","second compound 0.0316 µM, first compound 0.03 µM",93.3%
same,"viability, T/C","second compound 0.0316 µM, first compound 0.0949 µM",93%
same,"viability, T/C","second compound 0.0316 µM, first compound 0.3 µM",94.1%
same,"viability, T/C","second compound 0.1 µM, first compound 0.000949 µM",93.9%
same,"viability, T/C","second compound 0.1 µM, first compound 0.003 µM",104%
same,"viability, T/C","second compound 0.1 µM, first compound 0.00949 µM",88.3%
same,"viability, T/C","second compound 0.1 µM, first compound 0.03 µM",99.3%
same,"viability, T/C","second compound 0.1 µM, first compound 0.0949 µM",92.8%
same,"viability, T/C","second compound 0.1 µM, first compound 0.3 µM",86.7%
same,"viability, T/C","second compound 0.316 µM, first compound 0.000949 µM",95%
same,"viability, T/C","second compound 0.316 µM, first compound 0.003 µM",90.9%
same,"viability, T/C","second compound 0.316 µM, first compound 0.00949 µM",96.6%
same,"viability, T/C","second compound 0.316 µM, first compound 0.03 µM",92.1%
same,"viability, T/C","second compound 0.316 µM, first compound 0.0949 µM",97%
same,"viability, T/C","second compound 0.316 µM, first compound 0.3 µM",85.5%
same,"viability, T/C","second compound 1 µM, first compound 0.000949 µM",82.7%
same,"viability, T/C","second compound 1 µM, first compound 0.003 µM",94.5%
same,"viability, T/C","second compound 1 µM, first compound 0.00949 µM",79.8%
same,"viability, T/C","second compound 1 µM, first compound 0.03 µM",79.8%
same,"viability, T/C","second compound 1 µM, first compound 0.0949 µM",87.1%
same,"viability, T/C","second compound 1 µM, first compound 0.3 µM",92.2%
